Results published in patent US20100266503A1, “Breast Cancer Methods, Medicaments and Agents” (priority 2007, published 2010).

Experiments:
[1] = system: notch intracellular domain in MCF-7 cells; assay: Staining for notch intracellular domain expression (surrogate marker for GS activity); type: cell-based; details: 48 hours; Gefitinib 15 μM, U0126 10 μM, PD98059 10 μM
Text: (§1) (A) GS activity as measured by a fluorescent assay in MCF7 breast cancer cell lines and MCF10A normal cell lines, with and without treatment with the ERK1/2 inhibitor U0126. (B) Sections of MCF7 breast cancer cell lines stained for notch intracellular domain expression (as a surrogate marker for GS activity). Shown are sections of cells untreated (NO), and cells treated with oestrogen (E2), faslodex (FAS), Gefitinib (Gef), GSI1, and the ERK1/2 inhibitors U0126 (U) and. PD98059 (PD). (C) Sections of MCF10A normal cell lines stained for notch intracellular domain expression. Shown are sections of cells untreated (NO), and cells treated with Gefitinib (Gef) and PD98059 (PD).
(§2) Cancer and normal cell lines were treated with oestrogen (E2), faslodex (FAS), Gefitinib (Gef 15 μM), GSI1, and the ERK1/2 inhibitors U0126 (U) (10 μM) and PD98059 (PD) (10 μM) for 48 hours and a fluorescent assay performed to measure GS activity. The figures show relative fluorescence therefore the amount of fluorescence in the treated cells relative to the untreated minus background (these figures are corrected for background).

[2] = system: GS activity in MCF10A normal cell lines; details: 10 μM, 48 hours
Text: as §1, §2

[3] = system: GS activity in MCF7 breast cancer cell lines
Text: as §1, §2

[4] = system: GS Activity in MDA-MB 231 cell line; details: 48 h vs vehicle control
Description: GS Activity Assay was performed on MDA-MB 231 cell line. Cells were treated with a vehicle control and a U0126 inhibitor for 48 h.

Structure (SMILES) | notch intracellular domain expression localized to the nucleus compared to untreated cells [1] | increase in GS activity (relative fluorescence vs untreated) [2] | increase in GS activity (relative fluorescence vs untreated) ([3]; 10 μM, 48 hours) | increase in GS activity ([3]; breast cancer cells, summary statement) [fold] | GS Activity [4]
C[C@]12CC[C@@H]3c4ccc(O)cc4C[C@@H](CCCCCCCCC[S+]([O-])CCCC(F)(F)C(F)(F)F)[C@H]3[C@@H]1CC[C@@H]2O (some centres unmarked) [Faslodex] | all but the Faslodex appear to increase notch intracellular domain expression |  |  |  | 
COc1cc2ncnc(Nc3ccc(F)c(Cl)c3)c2cc1OCCCN1CCOCC1 [Gefitinib] | appear to increase notch intracellular domain expression localized to the nucleus |  |  |  | 
COc1cccc(-c2cc(=O)c3ccccc3o2)c1N [PD98059] | appear to increase notch intracellular domain expression localized to the nucleus |  |  |  | 
N#CC(=C(/N)Sc1ccccc1N)/C(C#N)=C(\N)Sc1ccccc1N [U0126] | appear to increase notch intracellular domain expression localized to the nucleus | approximately 4 fold | 6-12 fold | 9 | dose dependant increase of GS Activity
